In patent US20250302967A1, “PEPTIDE FORMULATIONS AND USES THEREOF” (Amytrx Therapeutics, Inc., priority 2022, published 2025):
Positions of bridges follow the written chain, without caps; N, C: chain ends. Residues, ends and D or L forms follow the SMILES beside them.

How the values were obtained:
[1] = PK/biodistribution following single topical dose: whole blood and plasma radioactivity; assay type: in vivo, male albino rats; parameters: Non-plasma compartment: unit not given beside the values; settings: rat; for Concentration of radioactivity in recovered white blood cells: reverse wash of filters
Procedure: Whole blood and plasma radioactivity analysis, quantitative whole-body autoradiography (QWBA), and micro-autoradiography (mARG) studies are performed following a single topical dose administration to male rats. Formulation 1, Formulation 2, or Formulation 3, where Compound 1 is 3H-Compound 1, are applied in a single topical dose at a target dose of 5 mg/kg to six male albino rats.
An additional three male albino rats received a single topical appropriate amount of CETAPHIL (R) applied to the dose site approximately 1 hour prior to application of ^3H-Compound 1 in a single topical dose at a target dose of 5 mg/kg. An individual rat receiving the emollient pre-treatment was used for a single time-point of 2 hours, 8 hours, and 48 hours.

[2] = 7-day repeat dose tolerance dermal study in Gottingen Mini-Pigs (non-GLP); assay type: in vivo
Source text: The purpose of this study was to evaluate the dermal dose tolerance at the maximum feasible dose (concentration and application rate) of Compound 1 in Formulation 1, Formulation 2, or Formulation 3 of Table 2, including placebo (F1, F2, or F3 without Compound 1) when applied by topical dermal application to Gottingen Mini-Pigs twice daily for seven days.
Three experimentally naive male Gottingen Mini-Pigs, 4-5 months old and weighing 10.6-13.8 kilograms at the outset of the study had four dose sites (100 cm^2 per site) numbered 1, 2, 3, and 4. The dose sites were not rotated.
Animals were dosed with all formulations twice daily (two doses per site per day; 6 hours+/−30 minutes between the first and second dose for 7 days). Mortality/morbidity was performed twice daily and once on the day of scheduled euthanasia. On Days 1-7 animals were observed prior to dosing and at 1-2 hours post-dose. A final observation was recorded on Day 8 prior to scheduled euthanasia. Body weights were recorded on Days 1 and 7. Food consumption was determined daily. Blood for toxicokinetic evaluation was collected on Days 1 and 7 at 0.5, 1, 2, 4, 6, 8 and 24 hours post-dose. […] Animals were sacrificed on Day 8 and a gross necropsy was performed. The dosing area (skin) was collected and preserved.

[3] = tested on: Phorbol Myristoyl Acetate (PMA)-induced skin inflammation; assay type: in vivo; settings: mouse
Source text: The anti-inflammatory efficacy of Compound 1 on a Phorbol Myristoyl Acetate (PMA)-induced skin inflammatory mouse model (irritant contact dermatitis) is shown following topical application of a formulation including Compound 1 herein.

[4] = tested on: mild to moderate atopic dermatitis; assay type: in vivo, human
Procedure: 26 subjects having mild to moderate atopic dermatitis and about 3-70% treatable body surface area (BSA) were enrolled in the study. […] Dosing was targeted at 0.62 g/kg/day of the formulation or 6.82 mg/kg/day of Compound 1. Based on an average body weight of 60 kg, and average BSA of 1.62 m2, a recommended starting dose of 2.5 g of a formulation (for example, Formulation 1 or 4; Formulations 2, 3, 5, and 6 may be dosed higher due to the lower concentration of Compound 1) is proposed as a starting point. Severity of atopic dermatitis (vIGA-AD score), treatable BSA, and the following 11 signs and symptoms were assessed: dryness, erythema, burning/stinging, erosion/ulceration, edema/swelling, itching, pain treated area, crusting, vesiculation, flaking/scaling, and bleeding.

[5] = CETAPHIL 1 hr prior to single topical 5 mg/kg, 48 h, dosing device removed by rat, potential oral administration by grooming
[6] = CETAPHIL 1 hr prior to single topical 5 mg/kg, 48 h, dosing device removed, potential oral administration
[7] = CETAPHIL emollient 1 hr prior to single topical 5 mg/kg, 2 h
[8] = CETAPHIL emollient 1 hr prior to single topical 5 mg/kg, 8 h
[9] = single topical 5 mg/kg, without CETAPHIL, 1 h
[10] = single topical 5 mg/kg, without CETAPHIL, 1 h post-dose
[11] = single topical 5 mg/kg, without CETAPHIL, 2 h
[12] = single topical 5 mg/kg, without CETAPHIL, 2 h post-dose
[13] = single topical 5 mg/kg, without CETAPHIL, 4 h
[14] = single topical 5 mg/kg, without CETAPHIL, 4 h post-dose
[15] = single topical 5 mg/kg, without CETAPHIL, 8 h
[16] = single topical 5 mg/kg, without CETAPHIL, 8 h post-dose
[17] = single topical 5 mg/kg, without CETAPHIL, 24 h
[18] = single topical 5 mg/kg, without CETAPHIL, 24 h post-dose
[19] = single topical 5 mg/kg, without CETAPHIL, 48 h
[20] = single topical 5 mg/kg, without CETAPHIL, 48 h post-dose
[21] = at EOT or at 2-week follow-up visit

CSCC[C@@H]1NC(=O)[C@H](CC(C)C)NC(=O)[C@H](CCCCN)NC(=O)[C@H](CCC(N)=O)NC(=O)[C@H](CCCNC(=N)N)NC(=O)[C@H](CCCCN)NC(=O)[C@H](CCCNC(=N)N)NC(=O)[C@H](CCC(N)=O)NC(=O)[C@H](C(C)C)NC(=O)[C@@H](NC(=O)[C@@H]2CCCN2C(=O)[C@H](C)NC(=O)[C@H](CC(C)C)NC(=O)[C@H](CC(C)C)NC(=O)[C@H](C)NC(=O)[C@H](CC(C)C)NC(=O)[C@H](CC(C)C)NC(=O)[C@@H](NC(=O)[C@H](C)NC(=O)[C@@H]2CCCN2C(=O)[C@H](CC(C)C)NC(=O)[C@H](CC(C)C)NC(=O)[C@H](C)NC(=O)[C@@H](NC(=O)[C@H](C)NC(=O)[C@H](C)N)C(C)C)C(C)C)CSSC[C@@H](C(=O)O)NC(=O)[C@@H]2CCCN2C1=O [^3H-Compound 1] (H-AAVALLPAVLLALLAPCVQRKRQKLMPC-OH; disulfide 17-28)
Cmax, total radioactivity ([1]; Plasma, single topical 5 mg/kg): 0.01453 µg/mL | Cmax, total radioactivity ([1]; Whole blood -WBC, single topical 5 mg/kg): 0.01168 µg/mL | Cmax, total radioactivity ([1]; Whole blood, single topical 5 mg/kg): 0.002282 µg/mL | Blood [1, 5]: 1630 ng/mL | Plasma [1, 5]: 2312 ng/mL | Non-plasma compartment [1, 6]: 19.2 | Partition coefficient [1, 6]: 80.8 | WBC depleted blood [1, 6]: 303.9 ng equivalents/mL | Blood [1, 7]: 4.444 ng/mL | Non-plasma compartment [1, 7]: 26.5 | Partition coefficient [1, 7]: 73.5 | Plasma [1, 7]: 5.443 ng/mL | WBC depleted blood [1, 7]: 2.333 ng equivalents/mL | Blood [1, 8]: 16.05 ng/mL | Non-plasma compartment [1, 8]: 21.3 | Partition coefficient [1, 8]: 78.7 | Plasma [1, 8]: 21.04 ng/mL | WBC depleted blood [1, 8]: 3.223 ng equivalents/mL | persistence in the blood ([1]; after a single topical administration): > 48 h | time to penetrate the skin deep enough to reach blood vessels ([1]; cream formulation, single topical administration): less than one hour | Concentration of radioactivity in recovered white blood cells ([1]; single topical 5 mg/kg, 1 h post-dose, may not represent total white blood cells): BLQ | Concentration of radioactivity in recovered white blood cells ([1]; single topical 5 mg/kg, 2 h post-dose): BLQ | Concentration of radioactivity in recovered white blood cells ([1]; single topical 5 mg/kg, 4 h post-dose): BLQ | Concentration of radioactivity in recovered white blood cells ([1]; single topical 5 mg/kg, 8 h post-dose): BLQ | Concentration of radioactivity in recovered white blood cells ([1]; single topical 5 mg/kg, 24 h post-dose): BLQ | Concentration of radioactivity in recovered white blood cells ([1]; single topical 5 mg/kg, 48 h post-dose): BLQ | Non-plasma compartment [1, 9]: 43.1 | Partition coefficient [1, 9]: 56.9 | Concentration of radioactivity in WBC depleted blood [1, 10]: BLQ | Concentration of radioactivity in plasma [1, 10]: 1.764 ng equivalents/mL | Concentration of radioactivity in whole blood [1, 10]: 1.923 ng equivalents/mL | Non-plasma compartment [1, 11]: 24.9 | Partition coefficient [1, 11]: 75.1 | Concentration of radioactivity in WBC depleted blood [1, 12]: BLQ | Concentration of radioactivity in plasma [1, 12]: 4.818 ng equivalents/mL | Concentration of radioactivity in whole blood [1, 12]: 3.850 ng equivalents/mL | Non-plasma compartment [1, 13]: 34.0 | Partition coefficient [1, 13]: 66.0 | Concentration of radioactivity in WBC depleted blood [1, 14]: 0.735 ng equivalents/mL | Concentration of radioactivity in plasma [1, 14]: 4.896 ng equivalents/mL | Concentration of radioactivity in whole blood [1, 14]: 4.303 ng equivalents/mL | Non-plasma compartment [1, 15]: 27.8 | Partition coefficient [1, 15]: 72.2 | Concentration of radioactivity in WBC depleted blood [1, 16]: 2.282 ng equivalents/mL | Concentration of radioactivity in plasma [1, 16]: 14.53 ng equivalents/mL | Concentration of radioactivity in whole blood [1, 16]: 11.68 ng equivalents/mL | Non-plasma compartment [1, 17]: 30.4 | Partition coefficient [1, 17]: 69.6 | Concentration of radioactivity in WBC depleted blood [1, 18]: 1.166 ng equivalents/mL | Concentration of radioactivity in plasma [1, 18]: 6.709 ng equivalents/mL | Concentration of radioactivity in whole blood [1, 18]: 5.593 ng equivalents/mL | Non-plasma compartment [1, 19]: 21.7 | Partition coefficient [1, 19]: 78.3 | Concentration of radioactivity in WBC depleted blood [1, 20]: 1.109 ng equivalents/mL | Concentration of radioactivity in plasma [1, 20]: 6.287 ng equivalents/mL | Concentration of radioactivity in whole blood [1, 20]: 4.978 ng equivalents/mL | partitioning among blood components ([1]; single topical dose, WBCs versus RBCs and RBC/WBC-depleted plasma): partitions to the WBCs (white blood cells) of blood preferentially

CSCC[C@@H]1NC(=O)[C@H](CC(C)C)NC(=O)[C@H](CCCCN)NC(=O)[C@H](CCC(N)=O)NC(=O)[C@H](CCCNC(=N)N)NC(=O)[C@H](CCCCN)NC(=O)[C@H](CCCNC(=N)N)NC(=O)[C@H](CCC(N)=O)NC(=O)[C@H](C(C)C)NC(=O)[C@@H](NC(=O)[C@@H]2CCCN2C(=O)[C@H](C)NC(=O)[C@H](CC(C)C)NC(=O)[C@H](CC(C)C)NC(=O)[C@H](C)NC(=O)[C@H](CC(C)C)NC(=O)[C@H](CC(C)C)NC(=O)[C@@H](NC(=O)[C@H](C)NC(=O)[C@@H]2CCCN2C(=O)[C@H](CC(C)C)NC(=O)[C@H](CC(C)C)NC(=O)[C@H](C)NC(=O)[C@@H](NC(=O)[C@H](C)NC(=O)[C@H](C)N)C(C)C)C(C)C)CSSC[C@@H](C(=O)O)NC(=O)[C@@H]2CCCN2C1=O [Compound 1] (H-AAVALLPAVLLALLAPCVQRKRQKLMPC-OH; disulfide 17-28)
dermal tolerance ([2]; male mini-pigs, 0, 0.11, 0.33, 1.1% w/w applied topically twice daily for 7 consecutive days): tolerated | no-observed-adverse-effect level (NOAEL) ([2]; male mini-pigs, highest dose tested: 0.75 grams of formulation applied twice daily for 7 days): 1.1 % w/w | early deaths (mortality) ([2]; male mini-pigs, topical 0.11, 0.33, 1.1% w/w (F3, F2, F1), 0.75 g per site twice daily for 7 days): no early deaths | clinical signs or dermal effects ([2]; male mini-pigs, topical 0.11, 0.33, 1.1% w/w, twice daily for 7 days): no clinical signs or dermal effects noted | dermal irritation ([2]; minipig, in vivo): no signs of dermal irritation | general signs of toxicity ([2]; minipig, in vivo): no general signs of toxicity | swelling and cellular infiltration in ear punch biopsies induced by PMA ([3]; 8 h post-challenge): reduced | skin wound healing and hair re-growth after repeated surgical trauma ([3]; in vivo): does not impede | inflammatory cell infiltration in skin biopsies in response to PMA ([3]; topical formulation, dose-dependent treatment): reduced | ear swelling (ear thickness of intact ears) induced by PMA ([3]; topical treatment): attenuated | 11 signs and symptoms of AD scored from patient diaries ([4]; 1.1% as Formulation 4, BID for 7 days): net negative score | subjects whose vIGA-AD score worsened 2 units ([4]; at 2-week follow up): 0 subjects | subjects whose EOT vIGA-AD score worsened 1 unit ([4]; at 2-week follow up (3 subjects)): 13% | subjects with improvement in vIGA-AD scores of 2 units ([4]; at 2-week follow up (10 subjects)): 44% | subjects with 0-clear or 1-almost clear skin ([4]; at 2-week post treatment): 61% | subjects with improved vIGA-AD scores of 2 units ([4]; at EOT (6 subjects)): 26% | subjects with 0-clear or 1-almost clear vIGA-AD scores ([4]; at EOT (BID for 7 days)): 57% | patients responding (reduction in treatable BSA or decrease in vIGA-AD severity score, or both) [4, 21]: 24 of 26 | reduction in size of treatable BSA in responders [4, 21]: 20-100% | adverse events (AEs) ([4]; in vivo): no adverse events | tolerability ([4]; in vivo): well tolerated
